Experimental data published in PMC6968694 (Emerging Microbes & Infections, 2020).

Biological target: T1, MtbPurT (Mycobacterium tuberculosis, UniProt P95197)
T1 construct: gene purT
Assay: biochemical

T1 sequence (P95197 entry or part of it): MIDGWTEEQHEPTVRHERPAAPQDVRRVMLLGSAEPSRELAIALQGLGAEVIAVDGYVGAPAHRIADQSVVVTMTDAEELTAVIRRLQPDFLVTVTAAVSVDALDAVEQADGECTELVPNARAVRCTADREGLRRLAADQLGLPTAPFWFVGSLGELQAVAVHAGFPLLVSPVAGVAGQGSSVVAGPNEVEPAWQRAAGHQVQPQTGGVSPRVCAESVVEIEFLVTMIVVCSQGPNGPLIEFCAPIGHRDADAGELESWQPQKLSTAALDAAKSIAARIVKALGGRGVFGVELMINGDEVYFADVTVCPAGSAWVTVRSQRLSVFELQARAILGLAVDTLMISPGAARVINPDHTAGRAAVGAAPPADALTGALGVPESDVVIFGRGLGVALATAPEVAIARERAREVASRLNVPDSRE

SMILES: Nc1ncnc2c1ncn2[C@@H]1O[C@H](CO[P@](=O)(O)O[P@](=O)(O)O[P@@](=O)(O)S)[C@@H](O)[C@H]1O [ATPγS]
- Kd: 207 ± 8.02 µM
